This passage reports IC50 results from article PMC8654043 (Chemical Science, 2021).

One assay deals with T1, caspase-9 (Homo sapiens, UniProt P55211).
T1 sequence (P55211 1-416): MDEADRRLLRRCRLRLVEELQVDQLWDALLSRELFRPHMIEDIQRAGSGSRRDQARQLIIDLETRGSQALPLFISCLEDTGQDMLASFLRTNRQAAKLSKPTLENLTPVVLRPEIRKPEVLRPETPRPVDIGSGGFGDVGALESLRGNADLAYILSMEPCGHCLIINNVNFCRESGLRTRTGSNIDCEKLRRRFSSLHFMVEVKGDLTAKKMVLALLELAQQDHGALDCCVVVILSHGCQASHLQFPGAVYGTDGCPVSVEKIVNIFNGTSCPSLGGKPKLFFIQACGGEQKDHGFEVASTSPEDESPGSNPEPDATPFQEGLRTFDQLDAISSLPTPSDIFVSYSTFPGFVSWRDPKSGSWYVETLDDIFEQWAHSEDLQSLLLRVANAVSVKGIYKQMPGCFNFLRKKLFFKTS
Type of assay: biochemical.

The target of another assay is caspase-8 (Homo sapiens, UniProt Q14790). Type of assay: biochemical.
Sequence of caspase-8 (Q14790 217-374): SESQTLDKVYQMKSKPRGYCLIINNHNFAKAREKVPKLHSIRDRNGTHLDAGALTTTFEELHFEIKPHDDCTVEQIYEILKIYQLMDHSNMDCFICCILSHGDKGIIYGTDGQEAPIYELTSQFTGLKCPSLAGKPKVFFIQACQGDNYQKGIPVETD
Sequence of caspase-8 (Q14790 385-479): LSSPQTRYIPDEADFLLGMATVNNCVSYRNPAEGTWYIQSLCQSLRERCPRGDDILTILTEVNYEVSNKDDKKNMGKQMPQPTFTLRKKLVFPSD

Structures are written as SMILES.

As usually defined, the IC50 is the concentration at which inhibition is half-maximal. Low values mean greater potency in that assay, high ones weaker potency in that assay. In the case of `CC(C)[C@H](NC(=O)c1ccc2ccccc2n1)C(=O)N[C@@H](CC(=O)O)C(=O)COc1c(F)cccc1F` [Q-VD-OPh], the IC50 was 310 nM against caspase-9 and 280 nM on caspase-8.
